# In patent US20260151391A1, “TREATMENT OF MITOCHONDRIAL DISEASES WITH sGC STIMULATORS” (Tisento Therapeutics Inc., priority 2022, published 2026):
# Like-named read-outs stand apart in the source and are kept apart here.
# Experiment: Non-human primate CSF pharmacokinetics (Study B), cisterna magna versus lumbar sampling
# Format: in vivo, Macaca fascicularis
# Details: for Kp uu at 3 h / Kp uu at 24 h: female, Cynomolgus macaque, cynomolgus monkey, read-out: geomean ratio of CSF concentration to unbound concentration in plasma (Kp,uu)
# Text: The objective of this study was to investigate the pharmacokinetics of Compound 1-14 after administration of a single […] bolus or oral gavage dose to cynomolgus monkeys on Day 1 and to evaluate differences in pharmacokinetic values when comparing CSF collected at the cisterna magna (as in Example 10A) versus lumbar locations. [table] • Species: Macaca fascicularis • Strain: Cynomolgus macaque • Number of Females: 4 • Age: Adult • Weight: 2.5-4 kg Single doses of Compound I-14 were administered intravenously as a bolus injection of a solution at 0.15 mg/kg and orally by gavage as a suspension at 0.5 mg/kg to a group of four female cynomolgus monkeys in a crossover design. Plasma samples were collected at 0.25 (15 min), 0.5 (30 min), 1, 2, 3, 6, 8, 12, 24, 32, and 48 h following the IV and PO doses. CSF samples were collected at 3 and 24 h for all animals from the cisterna magna in groups 1 and 2 and the lumbar from groups 3 and 4. Sample extracts were prepared by protein precipitation and Compound I-14 concentrations were measured using LC-MS/MS. Pharmacokinetic parameters were calculated.
# [1] = CSF (cisterna magna) / unbound plasma, IV bolus 0.15 mg/kg, cisterna magna sampling
# [2] = CSF (cisterna magna) / unbound plasma, oral gavage 0.5 mg/kg, cisterna magna sampling
# [3] = CSF (lumbar) / unbound plasma, IV bolus 0.15 mg/kg, lumbar sampling
# [4] = CSF (lumbar) / unbound plasma, oral gavage 0.5 mg/kg, lumbar sampling
smiles,measurement,setting,value
"Cc1cc(F)c(Cc2nc(-c3ncc(F)c(O)n3)cn3ccnc23)cc1F [Compound I-14, 5-fluoro-2-(8-(2,5-difluoro-4-methylbenzyl)imidazo[1,2-a]pyrazin-6-yl)pyrimidin-4-ol]",presence of compound in CSF,"IV and PO administration, cisterna magna and lumbar sampling",observed in the CSF at 3 and 24 hours
same,Kp uu at 3 h,[1],2 to 3
same,Kp uu at 3 h,[2],2 to 3
same,Kp uu at 24 h,[1],1 to 2
same,Kp uu at 24 h,[2],2 to 3
same,Kp uu at 3 h,[3],2 to 3
same,Kp uu at 3 h,[4],2 to 3
same,Kp uu at 24 h,[3],1 to 2
same,Kp uu at 24 h,[4],2 to 3
